Laboratory results taken from publication PMC6946680, “Modulation of brain cation-Cl^− cotransport via the SPAK kinase inhibitor ZT-1a” (Nature Communications, 2020).
Values joined by “and” are separate entries in the source; they are usually repeats but may differ in a detail not shown here. Equal values may be shown once. “Also recorded” adds a separate entry of the source. Read-outs that look alike come from different tables or passages of the source.

Experiments:
[1] = target: T1, GST–[T233E]SPAK kinase (Homo sapiens, UniProt Q9UEW8, T231E); test: SPAK kinase assay with CATCHtide and IC50 determination; type: biochemical; conditions: for ZT-1a vs SPAK, kinase activity: SPAK alone, Fig S7b
T1 construct: made in house; host or cells: E. coli
From the text: II. Experimental procedures
1. Reagents and General methods
Tissue culture reagents were from Life Technologies. P81 phosphocellulose paper was from Whatman […]
and [γ-32P]-ATP was from Perkin Elmer. […] Protein G […]
sepharose was from Amersham. DNA constructs used for transfection were purified from Escherichia coli DH5α using Qiagen or Invitrogen plasmid Maxi kits according to the manufacturer's protocol. All DNA constructs were verified by DNA sequencing.
2. Plasmids, protein expression and purification
DNA clones were from the Division of Signal Transduction Therapy (University of Dundee). The SPAK proteins were expressed in E. Coli and purified as described previously 1.
3. SPAK kinase assays and IC50 determination
SPAK kinase assays employed CATCHtide (cation chloride co-transporter peptide substrate). Peptide kinase assays, performed in triplicate, were set up in a total volume of 50 μl containing 0.5 μg GST– […]
cpm/pmol) and the indicated concentrations of inhibitor dissolved in DMSO. After incubation for 30 min at 30°C, reactions were terminated by spotting 40 μl of the reaction mix onto P81 phosphocellulose paper and immersion in 50 mM phosphoric acid. The papers were washed extensively and incorporation of [γ-32P]ATP into CATCHtide was quantified by Cerenkov counting.
IC50 values were calculated with GraphPad Prism using non-linear regression analysis.
4. Fluorescence polarization […]
concentrations between 0.00001 to 1 mM. Data points are the means of three determinations, with error […]
A Supplemental Fig. 7 Effects of increasing concentrations of ZT-1a on SPAK activity in the absence […]
the absence or presence of five-fold molar excess of wild-type MO25α. b Kinetic data determined for B ZT-1a in the absence or presence of five-fold molar excess of wild-type MO25α. Data are means of […]
presence of wild-type MO25α.

[2] = tested on: tSPAK tOSR1; test: Immunoblot of total SPAK/OSR1 in ischemic mouse brain membrane and cytosol fractions; type: in vivo; conditions: Cytosol; IL; single samples
[3] = tested on: CSF secretion by choroid plexus epithelium; test: Rate of CSF production after IVH with intracerebroventricular drug; type: in vivo; conditions: rat; ZT-1a treatment for 48 h at 10 µM
[4] = tested on: KCC4 pThr926/pThr980; test: Choroid plexus KCC4 phospho-IP/immunoblot in rat IVH model; type: in vivo
[5] = tested on: pJNK; test: Immunoblot of phospho-JNK in ischemic mouse brain; type: in vivo
From the text: (§1) Cytosol and crude membrane protein
(§2) Expressions of Na+-K+ ATPase
(§3) respectively. d Densitometric analyses of immunoblots.

[6] = tested on: KCC3 pThr1048; test: Immunoblot of KCC site 2 phosphorylation (KCC3 Thr1048) in HEK-293 cells transfected with FLAG-KCC3; type: cell-based, human; conditions: Fig S4b
[7] = ZT-1a pharmacokinetic properties in naive mice; type: in vivo, ICR mice; conditions: mouse, plasma; for MRT inf: read-out: MRT(0-∞)
Procedure: 1 Supplemental Table 3. ZT-1a pharmacokinetic (PK) properties in naïve mice.
2 ZT-1a pharmacokinetics were determined following a single 5 mg/kg intravenous (IV) dose and a single 10 mg/kg oral (PO) dose in
3 ICR mice (N = 3 at each time point).
Samples were subjected to drug assay by LC-MS/MS, and data were analyzed by WinNonlin V6.3. Tmax =
5 time of maximum plasma concentration, Cmax = maximum plasma concentration, AUC = area under the curve (measure of exposure),
6 T1/2 = half life, CL = plasma clearance, Vz = volume of distribution, MRT, mean residence time; F = oral bioavailability.

[8] = tested on: pGSK-3α/β; test: Immunoblot of phospho-GSK-3α/β in ischemic mouse brain; type: in vivo; conditions: for pGSK-3αβ/GAPDH (fold veh-CL): Cytosol; for pGSK-3αβ/GAPDH (fold veh-CL) / pGSK-3αβ/Na K pump (fold veh-CL): Fig S4d; for pGSK-3αβ/Na K pump (fold veh-CL): Membrane
From the text: as §1, §2, §3

[9] = rat CPe 48 h post IVH + 1a, replicates

## Cc1cc(C(C#N)c2ccc(Cl)cc2)c(Cl)cc1NC(=O)c1cc(Cl)ccc1O (centres unmarked) [ZT-1a, 5-chloro-N-(5-chloro-4-((4-chlorophenyl)(cyano)methyl)-2-methylphenyl)-2-hydroxybenzamide]
[1]; ZT-1a 1e-5 uM
  ZT-1a vs SPAK, kinase activity: 48785 C.P.M and 47183 C.P.M and 49610 C.P.M
[1]; ZT-1a 0.0001 uM
  ZT-1a vs SPAK, kinase activity: 46475 C.P.M and 45108 C.P.M and 47685 C.P.M
[1]; ZT-1a 0.001 uM
  ZT-1a vs SPAK, kinase activity: 47080 C.P.M and 46113 C.P.M and 46420 C.P.M
[1]; ZT-1a 0.003 uM
  ZT-1a vs SPAK, kinase activity: 44660 C.P.M and 45821 C.P.M and 45595 C.P.M
[1]; ZT-1a 0.01 uM
  ZT-1a vs SPAK, kinase activity: 45890 C.P.M and 44094 C.P.M and 44440 C.P.M
[1]; ZT-1a 0.03 uM
  ZT-1a vs SPAK, kinase activity: 44825 C.P.M and 43187 C.P.M and 44890 C.P.M
[1]; ZT-1a 0.1 uM
  ZT-1a vs SPAK, kinase activity: 44275 C.P.M and 42127 C.P.M and 44780 C.P.M
[1]; ZT-1a 0.3 uM
  ZT-1a vs SPAK, kinase activity: 44230 C.P.M and 41993 C.P.M and 43780 C.P.M
[1]; ZT-1a 1 uM
  ZT-1a vs SPAK, kinase activity: 43840 C.P.M and 42097 C.P.M and 44510 C.P.M
[1]; ZT-1a 3 uM
  ZT-1a vs SPAK, kinase activity: 41230 C.P.M and 39714 C.P.M and 40580 C.P.M
[1]; ZT-1a 10 uM
  ZT-1a vs SPAK, kinase activity: 29580 C.P.M and 31008 C.P.M and 33855 C.P.M
[1]; ZT-1a 100 uM
  ZT-1a vs SPAK, kinase activity: 14995 C.P.M and 17307 C.P.M and 16430 C.P.M
[1]; ZT-1a 1000 uM
  ZT-1a vs SPAK, kinase activity: 5830 C.P.M and 7520 C.P.M and 9285 C.P.M
[1]; absence of wild-type MO25α
  IC50: 40.5 µM
[1]; presence of five-fold molar excess of wild-type MO25α
  IC50: 41.3 µM
[2]
  tSPAK tOSR1/GAPDH (fold veh-CL): 1.10 fold veh-CL and 1.64 fold veh-CL and 1.23 fold veh-CL and 1.65 fold veh-CL and 0.87 fold veh-CL
[3]
  decrease of post-IVH CSF hypersecretion: ~ 2.3 fold
[4]; [9]
  KCC4 / Actin: 2.09 and 2.11 and 2.1 and 2.05 and 2.15 and 2.12
  KCC4 pThr926 / Actin: 0.241 and 0.354 and 0.43 and 0.261 and 0.376 and 0.487
  KCC4 pThr980 / Actin: 0.279 and 0.426 and 0.524 and 0.299 and 0.447 and 0.541
[4]; rat CPe, ICV ZT-1a
  reduction of post-IVH KCC4 phosphorylation at Thr926/Thr980: ~ 2 fold
[5]; Cytosol, CL, Fig S4d
  pJNK/GAPDH (fold veh-CL): 1.00 fold veh-CL and 1.48 fold veh-CL and 0.87 fold veh-CL and 0.76 fold veh-CL
[5]; Membrane, IL, Fig S4d
  pJNK/Na K pump (fold veh-CL): 2.05 fold veh-CL and 1.64 fold veh-CL and 1.81 fold veh-CL and 1.40 fold veh-CL
[5]; ZT-1a 5.0 mg/kg
  p-JNK in ischemic brains: no marked inhibition
[6]; ZT-1a 0.3 uM
  KCC3 pThr1048 / KCC3: 0.52 and 0.601 and 0.501 and 0.473
[6]; ZT-1a 3 uM
  KCC3 pThr1048 / KCC3: 0.31 and 0.301 and 0.253 and 0.205
[7]; ICR, intravenous, 5 mg/kg, naive mice
  AUC: 2340 ng·h/mL
[7]; ICR, intravenous, 5 mg/kg, naive mice, read-out: T1/2 (plasma half-life) (converted)
  half-life: 1.8 h
[7]; ICR, iv, 5 mg/kg, IV 5 mg/kg, ICR mice, read-out: t1/2 (converted)
  half-life: 1.8 h
[7]; ICR, oral, 10 mg/kg, naive mice
  bioavailability: 2.2%
[7]; ICR, po, 10 mg/kg, PO 10 mg/kg, ICR mice, read-out: t1/2 (converted)
  half-life: 2.6 h
[7]; IV 5 mg/kg, ICR mice
  AUC(0-inf): 2350 ng·h/mL
  AUC(0-t): 2340 ng·h/mL
  C0: 14900 ng/mL
  Cmax: 6910 ng/mL
  Tmax: 0.08 h
  clearance: 35.5 mL/min/kg
  MRT inf: 0.45 h
[7]; IV 5 mg/kg, ICR mice, read-out: Vz
  Vd: 0.948 L/kg
[7]; PO 10 mg/kg, ICR mice
  AUC(0-inf): 105 ng·h/mL
  AUC(0-t): 97.3 ng·h/mL
  Cmax: 94 ng/mL
  Tmax: 0.25 h
  bioavailability: 2.2%
  MRT inf: 3.3 h
[8]; CL
  pGSK-3αβ/GAPDH (fold veh-CL): 1.03 fold veh-CL and 0.85 fold veh-CL and 1.10 fold veh-CL
  pGSK-3αβ/Na K pump (fold veh-CL): 1.04 fold veh-CL and 0.96 fold veh-CL and 1.12 fold veh-CL
[8]; IL
  pGSK-3αβ/GAPDH (fold veh-CL): 1.40 fold veh-CL and 1.29 fold veh-CL and 1.07 fold veh-CL
  pGSK-3αβ/Na K pump (fold veh-CL): 0.94 fold veh-CL and 0.88 fold veh-CL and 0.90 fold veh-CL
[8]; ZT-1a-treated ischemic mouse brain, 5.0 mg/kg i.p., 24 h post reperfusion, 5 mg/kg
  GSK-3β (p-GSK-3alpha/beta) phosphorylation in ischemic brain: not inhibited; also recorded: no marked inhibition
